Data from US9073880B2, “2-(2-phenylethenyl) 1,3-benzodiazepine derivatives useful for the treatment of cancer” (Yissum Research Development Company of the Hebrew …, priority 2010, dated 2015).

Columns and labels:
[1] = test system: human prostate carcinoma PC3 cells; test: Cell proliferation, PC3 (Example 4); assay type: cell-based; details: PC-3, PC3, prostate cancer, compound in 2-hydroxypropyl-β-cyclodextrin
Method: Human ovary cancer A2780 cells lines were seeded at a density of 5000 cells/well, human melanoma A375 cells were plated at a density of 2,500 cells/well, human colon carcinoma HCT15 cells were plated at a density of 3,000 cells/well, human prostate carcinoma PC3 cells were plated at a density of 1,500 cells/well, human breast carcinoma MCF7 cells were plated at a density of 5,000 cells/well, human breast carcinoma MDA MB 468 cells were plated at a density of 6,000 cells/well, human myeloma U266, RPMI8226 and CAG cells were plated at a density of 10,000 cells/well. All cells were plated in 96-well plates in 90 μl growth medium containing 10% FCS, 100 units/ml penicillin and 100 μg/ml streptomycin. Compound 3 was added a day later in […] of 1% DMSO in DDW to obtain final concentrations of 0, 0.1, 0.3, 1, 3, and 10 μM. The final concentration of DMSO (0.1% DMSO) was kept constant in all samples. […] The optical density values were read at 630 nm in ELISA plate reader. Non-adhered cells were exposed to WST-1 reagent for 5 hours following 72 hours treatment with the inhibitors, and optical density values were read at 630 nm in ELISA plate reader. The data was analyzed in Microsoft Excel, using the vehicle control as 100% proliferation. […]

[2] = test system: human colon carcinoma HCT116 cells; test: Cell proliferation, HCT116 (Example 4); assay type: cell-based; details: HCT-116, HCT116, colon cancer, compound in 2-hydroxypropyl-β-cyclodextrin
Method: Human ovary cancer A2780 cells lines were seeded at a density of 5000 cells/well, human melanoma A375 cells were plated at a density of 2,500 cells/well, human colon carcinoma HCT15 cells were plated at a density of 3,000 cells/well, human prostate carcinoma PC3 cells were plated at a density of 1,500 cells/well, human breast carcinoma MCF7 cells were plated at a density of 5,000 cells/well, human breast carcinoma MDA MB 468 cells were plated at a density of 6,000 cells/well, human myeloma U266, RPMI8226 and CAG cells were plated at a density of 10,000 cells/well. All cells were plated in 96-well plates in 90 μl growth medium containing 10% FCS, 100 units/ml penicillin and 100 μg/ml streptomycin. Compound 3 was added a day later in […] of 1% DMSO in DDW to obtain final concentrations of 0, 0.1, 0.3, 1, 3, and 10 μM. The final concentration of DMSO (0.1% DMSO) was kept constant in all samples. Following exposure of the cells to compound 3 for 72 hours at 37° C., adhered cells were fixed in 0.5% gluteraldehyde in medium for 10 min, washed three times with DDW, once with 0.1M sodium borate buffer pH 8.5 and stained with 1% methylene blue dissolved in 0.1M borate buffer solution for 60 min. Excess dye was washed out and cell-bound dye was eluted with 200 μl/well of 0.1M HCl. The optical density values were read at 630 nm in ELISA plate reader. Non-adhered cells were exposed to WST-1 reagent for 5 hours following 72 hours treatment with the inhibitors, and optical density values were read at 630 nm in ELISA plate reader. The data was analyzed in Microsoft Excel, using the vehicle control as 100% proliferation. The assays were performed in triplicates. The values of IC50 were derived from the dose-dependent growth curves obtained.
Cell proliferation assay was performed as described in Example 2. The following cell line were plated in 96-well plates in 90 μl growth medium containing 10% FCS, 100 units/ml penicillin and 100 μg/ml streptomycin: human ovary cancer A2780 cells (4500 cells/well), human melanoma A375 (1500 cells/well) and YUMAC (2500 cells/well) cells, human colon carcinoma HCT15 (3000 cells/well) and HCT116 (2000 cells/well) cells, human prostate carcinoma PC3 (3000 cells/well), PC3MM2 (3500 cells/well) and DU145 (300 cells/well) cells, human hepatocarcinoma HepG2 (3000 cells/well), human Ewing sarcoma SK-ES-1 (4,500 cells/well), human glioblastoma U138MG (2,000 cells/well), human breast cancer T47D (4000 cells/well) and MDA-MB-468 (6000 cells/well) cells, human small cell lung carcinoma NCI-H1975 (5000 cells/well) cells, human osteosarcoma Saos-2 (5000 cells/well) cells, human pancreatic cancer ASPC (2500 cells/well) cells, human bladder carcinoma T24P (1000 cells/well) cells, human gastric cancer NCI-N87 (5000 cells/well) cells, human lymphoma KARPAS (5,000 cells/well) cells, human leukemia K562 (5,000 cells/well) cells and human multiple myeloma MM1S (10,000 cells/well), U266 (10,000 cells/well) and CAG (5,000 cells/well). Compounds 2-5 and 7-8 were added a day later in 10 μl of 0.7% 2-hydroxypropyl-β-cyclodextrin to obtain final concentrations of 0, 0.1, 0.3, 1, 3 and 10 μM.
Compounds 2-5 and 7-8 of the present invention were tested for their inhibitory potential in cell proliferation assay. […]

[3] = test system: Akt/PKB pathway; test: IGF1-induced Akt/PKB activation in A375 cells (Example 5); assay type: cell-based, human
Method: The effect of compound 5 on IRS1 & IRS2 levels and its effect on IGF1-induced Akt/PKB activation and apoptosis in melanoma A375 cells were tested. Cells were seeded in 6-well plates (150,000 A375 cells/well) and 24 hours later medium was replaced by serum-free medium (RPMI supplemented with 100 units/ml penicillin and 100 μg/ml streptomycin), […], and then stimulated for 5 minutes with 50 ng/ml IGF-1, washed twice with PBS and lysed by boiling sample buffer (10% glycerol, 50 mM Tris-HCl, pH 6.8, 3% SDS, and 5% β-mercaptoethanol). Equal amounts of protein per lane were separated by 8% SDS-PAGE and transferred to a nitrocellulose membrane (Sartorius AG). To detect the inhibition of the Akt/PKB activation, phosphorylated proteins were immunoblotted with anti-phospho(T308)Akt (pT308-PKB) and anti-phospho-Tuberin/TSC2 (pTuberin) antibodies. To visualize cell death induced by compound 5, the intact and the cleaved PARP were immunoblotted with anti-PARP antibody. The changes in the levels of IRS1 and IRS2 were detected with specific antibodies. Detection was performed with horseradish peroxidase-conjugated secondary antibody using the ECL system. Blots were then stripped of antibodies, blocked with TBST with 5% low fat milk and re-probed with antibodies detecting both the phosphorylated and the non-phosphorylated Akt/PKB. […]

Q: Which IC50 [1] does the source give for `O=c1c(O)cc2cnc(/C=C/c3cc(O)c(O)c(Br)c3)sc-2c1O` [Compound 3] here?
A: 700 nM

Q: What about the IC50 [2] of the same compound?
A: 500 nM

Q: With `O=c1c(O)cc2cnc(/C=C/c3ccc(O)c(O)c3Br)sc-2c1O` [Compound 5] as the compound, how does the IC50 [2] read?
A: 400 nM

Q: And the “IGF1-induced activation of the Akt/PKB pathway” value ([3]; 3 μM, 48 hr, 50 ng/ml IGF-1 5 minutes, FIG. 6B)?
A: blocked the IGF1-induced activation of the Akt/PKB pathway

Q: What about the “IGF1-induced activation of PKB/Akt after washout” value ([3]; 5 μM for 4 hr, washed, 24 hr after washout, FIG. 6C) of the same compound?
A: blocked
